Assay results taken from publication PMC12308805, “Ultrahigh-Throughput Virtual Screening Strategies against PPI Targets: A Case Study of STAT Inhibitors” (Journal of Chemical Information and Modeling, 2025).

Assays:
STAT5b = test system: STAT5b; parameters: method as in literature; settings: training set for retrospective virtual screening with 6MBW; known actives for STAT5b found in the literature; ref literature; cited from earlier work
[1] = molecular target: T1, STAT5b N-terminal domain (NTD) (Homo sapiens, UniProt P51692); experiment: Isothermal titration calorimetry (ITC), STAT5b-NTD; assay type: binding; parameters: key to identified as active in ITC: A compound was identified as active, if it had a mean Kd value under 100 μM; settings: for Kd: ITC, 25 °C, 1X PBS pH 7.4, 8% DMSO, single-site fit
T1 sequence (P51692 1-126 limits assumed): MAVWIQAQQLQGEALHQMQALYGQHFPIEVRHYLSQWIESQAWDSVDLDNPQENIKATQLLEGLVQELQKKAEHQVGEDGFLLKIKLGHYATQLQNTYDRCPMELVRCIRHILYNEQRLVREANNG
Procedure: The detailed protocol for the expression and purification of the STAT5b-NTD was described in our recent work. ITC measurements were carried out on a MicroCal PEAQ-ITC microcalorimeter (Malvern Instruments, Worcestershire, UK). All protein and ligand solutions were composed of 1X PBS (pH 7.4) buffer containing 8% (V/V) DMSO to avoid buffer mismatch. Protein solutions containing 25-26 μM protein were prepared in batches prior to measurements by diluting 676 μM stock solution (stored in 1X PBS (pH 7.4) buffer at -80 °C) warmed to room temperature with 1X PBS (pH 7.4) buffer solution and an appropriate amount of DMSO. Ligand solutions were prepared by first dissolving the ligands in DMSO to acquire a 50 mM stock solution, which was then diluted to 1 mM (in the case of […]_M2 ligand) or 4 mM (all other ligands) concentration using 1X PBS (pH 7.4) buffer solution. Appropriate amounts of DMSO were also added to the solution containing 1 mM ligand to yield a 8% (V/V) DMSO content. The protein solution was loaded into the sample cell in a volume of 200 μL and was titrated at 25 °C with the ligand solution at a stirring speed of 1000 rpm and a reference heat rate of 10 μcal/s in a high feedback mode. Used initial delay was 120 s, and the injection program was composed of an initial first injection with 0.5 μL over 2 s, followed by 18 injections with 2 μL over 4 s. Injections were performed every 180 s. Blank measurements consisting of titrating the ligand into the buffer (1X PBS (pH 7.4) containing 8% (V/V) DMSO) were carried out to correct for the heat of dilution for all ligands using the appropriate injection program. Data were analyzed using the MicroCal PEAQ-ITC analysis software (version 1.22) by fitting a single-site binding curve. […] Binding curves of the identified active compounds are included in Supporting Information Figures S3-S5.

identified as active in ITC [1] | Kd [1] [µM] | Structure (SMILES) | Type (Active / decoy) (STAT5b) | identified as weakly binding in ITC [1]
– | – | Cc1cc(C)c(S(=O)(=O)N(C)CC(=O)N(Cc2ccc(C3CCCCC3)cc2)c2ccc(C(=O)O)c(O)c2)c(C)c1 [BP-1-108, Cc1cc(C)c(S(=O)(=O)N(C)CC(=O)N(Cc2ccc(C3CCCCC3)cc2)c2ccc(C(=O)O)c(O)c2)c(C)c1] | Active | –
– | – | COC(=O)c1cccc(-c2ccc(-c3ccc(CN(C(=O)CN(C)S(=O)(=O)c4ccc(C)cc4)c4ccc(C(=O)O)c(O)c4)cc3)cc2)c1 [BP-1-075, COC(=O)c1cccc(-c2ccc(-c3ccc(CN(C(=O)CN(C)S(=O)(=O)c4ccc(C)cc4)c4ccc(C(=O)O)c(O)c4)cc3)cc2)c1] | Active | –
active | 57.3 ± 11.9 | CC(=O)N1CC[C@@H](NC(=O)c2cc3ccccc3cc2O)[C@H](O)C1 [S5N_M6, c1cccc(c12)cc(c(O)c2)C(=O)N[C@@H]3CCN(C(=O)C)C[C@H]3O] | – | –
active | 81.3 ± 12.7 | O=C(NC[C@@]1(O)CCCNC1)Nc1cc(Cl)ccc1Cl [S5N_M4, Clc(c1)ccc(Cl)c1NC(=O)NC[C@@]2(O)CCC[NH]C2] | – | –
– | 484 ± 22.5 | O=C(NCC[C@@H](O)c1ccc2c(c1)OCO2)C(=O)Nc1ccc(F)c(Cl)c1 [S5N_M1, Clc(c1)c(F)ccc1NC(=O)C(=O)NCC[C@@H](O)c(cc2)cc(c23)OCO3] | – | weakly binding (weakly binding (mean Kd is higher than 100 μM))
– | 268 ± 37.8 | N[C@H]1C[C@@H](c2cc(N[C@H](CO)Cc3ccccc3)ncn2)C1 [S5N_M7, C1[C@H]([NH2])C[C@@H]1c(c2)ncnc2N[C@H](CO)Cc3ccccc3] | – | weakly binding (weakly binding (mean Kd is higher than 100 μM))
– | – | CC(C)(C)c1cc(CN(C(=O)CN(Cc2ccc(Cl)cc2)S(=O)(=O)c2c(F)c(F)c(F)c(F)c2F)c2ccc(C(=O)O)c(O)c2)cc(C(C)(C)C)c1 [13a, CC(C)(C)c1cc(CN(C(=O)CN(Cc2ccc(Cl)cc2)S(=O)(=O)c2c(F)c(F)c(F)c(F)c2F)c2ccc(C(=O)O)c(O)c2)cc(C(C)(C)C)c1] | Active | –
– | – | CN(CC(=O)N(Cc1ccc(C2CCCCC2)cc1)c1ccc(C(=O)O)c(O)c1)S(=O)(=O)c1ccc(-c2ccccc2)cc1 [BP-1-107, CN(CC(=O)N(Cc1ccc(C2CCCCC2)cc1)c1ccc(C(=O)O)c(O)c1)S(=O)(=O)c1ccc(-c2ccccc2)cc1] | Active | –
active | 34.9 ± 4.29 | C[C@@](O)(CNC(=O)NCc1cccc2ccccc12)c1ccc2c(c1)OCO2 [S5N_M2, c1cccc(c12)c(ccc2)CNC(=O)NC[C@@](C)(O)c(cc3)cc(c34)OCO4] | – | –
– | – | CC(C)(C)c1cc(CN(C(=O)CN(Cc2ccc(Cl)cc2)S(=O)(=O)c2c(F)c(F)c(F)c(F)c2F)c2ccc(C(=O)O)cc2)cc(C(C)(C)C)c1 [AC-4-130, CC(C)(C)c1cc(CN(C(=O)CN(Cc2ccc(Cl)cc2)S(=O)(=O)c2c(F)c(F)c(F)c(F)c2F)c2ccc(C(=O)O)cc2)cc(C(C)(C)C)c1] | Active | –
